Reference: ChEMBL document CHEMBL4507277

Key:
[1] = biological target: Fibroblast growth factor receptor 2 (Homo sapiens) (UniProt P21802); conditions: Compound concentration 1000.0 nM
[2] = biological target: G protein-coupled receptor kinase 4 (Homo sapiens) (UniProt P32298); conditions: Compound concentration 1000.0 nM
[3] = biological target: Mitogen-activated protein kinase 10 (Homo sapiens) (UniProt P53779); conditions: Compound concentration 1000.0 nM
[4] = biological target: Macrophage-stimulating protein receptor (Homo sapiens) (UniProt Q04912); conditions: Compound concentration 1000.0 nM
[5] = biological target: Phosphatidylinositol 3-kinase catalytic subunit type 3 (Homo sapiens) (UniProt Q8NEB9); conditions: Compound concentration 1000.0 nM
[6] = biological target: Serine/threonine-protein kinase B-raf (Homo sapiens) (UniProt P15056); conditions: Compound concentration 1000.0 nM
[7] = system: Epidermal growth factor receptor (Homo sapiens), P00533 [UNDEFINED MUTATION]; conditions: Compound concentration 1000.0 nM
[8] = biological target: LIM domain kinase 1 (Homo sapiens) (UniProt P53667); conditions: Compound concentration 1000.0 nM
[9] = biological target: Receptor-type tyrosine-protein kinase FLT3 (Homo sapiens) (UniProt P36888); conditions: Compound concentration 1000.0 nM
[10] = biological target: Cyclin-dependent kinase 13 (Homo sapiens) (UniProt Q14004); conditions: Compound concentration 1000.0 nM
[11] = biological target: Insulin receptor (Homo sapiens) (UniProt P06213); conditions: Compound concentration 1000.0 nM
[12] = biological target: Vascular endothelial growth factor receptor 3 (Homo sapiens) (UniProt P35916); conditions: Compound concentration 1000.0 nM
[13] = biological target: Serine/threonine-protein kinase TAO1 (Homo sapiens) (UniProt Q7L7X3); conditions: Compound concentration 1000.0 nM
[14] = biological target: Fibroblast growth factor receptor 3 (Homo sapiens) (UniProt P22607); conditions: Compound concentration 1000.0 nM
[15] = biological target: Serine/threonine-protein kinase TAO2 (Homo sapiens) (UniProt Q9UL54); conditions: Compound concentration 1000.0 nM
[16] = biological target: Dual specificity tyrosine-phosphorylation-regulated kinase 1A (Homo sapiens) (UniProt Q13627); conditions: Compound concentration 1000.0 nM
[17] = biological target: Cyclin-dependent kinase 7 (Homo sapiens) (UniProt P50613); conditions: Compound concentration 1000.0 nM
[18] = biological target: Serine/threonine-protein kinase SIK3 (Homo sapiens) (UniProt Q9Y2K2); conditions: Compound concentration 1000.0 nM
[19] = biological target: Serine/threonine-protein kinase 32C (Homo sapiens) (UniProt Q86UX6); conditions: Compound concentration 1000.0 nM
[20] = biological target: Muscarinic acetylcholine receptor M2 (Homo sapiens) (UniProt P08172); conditions: Compound concentration 10.0 uM
[21] = biological target: Serine/threonine-protein kinase 17B (Homo sapiens) (UniProt O94768); conditions: Compound concentration 1000.0 nM
[22] = biological target: Alpha-1B adrenergic receptor (Homo sapiens) (UniProt P35368); conditions: Compound concentration 10.0 uM
[23] = biological target: Serine/threonine-protein kinase Sgk2 (Homo sapiens) (UniProt Q9HBY8); conditions: Compound concentration 1000.0 nM
[24] = biological target: Serine/threonine-protein kinase NLK (Homo sapiens) (UniProt Q9UBE8); conditions: Compound concentration 1000.0 nM
[25] = biological target: LIM domain kinase 2 (Homo sapiens) (UniProt P53671); conditions: Compound concentration 1000.0 nM
[26] = biological target: Mitogen-activated protein kinase kinase kinase 7 (Homo sapiens) (UniProt O43318); conditions: Compound concentration 1000.0 nM
[27] = biological target: Ephrin type-A receptor 5 (Homo sapiens) (UniProt P54756); conditions: Compound concentration 1000.0 nM
[28] = biological target: Serine/threonine-protein kinase 16 (Homo sapiens) (UniProt O75716); conditions: Compound concentration 1000.0 nM
[29] = system: Receptor-type tyrosine-protein kinase FLT3 (Homo sapiens), P36888 [UNDEFINED MUTATION]; conditions: Compound concentration 1000.0 nM
[30] = biological target: Dual specificity protein kinase CLK4 (Homo sapiens) (UniProt Q9HAZ1); conditions: Compound concentration 1000.0 nM
[31] = biological target: Fibroblast growth factor receptor 1 (Homo sapiens) (UniProt P11362); conditions: Compound concentration 1000.0 nM
[32] = biological target: 3-phosphoinositide-dependent protein kinase 1 (Homo sapiens) (UniProt O15530); conditions: Compound concentration 1000.0 nM
[33] = biological target: Serine/threonine-protein kinase 38-like (Homo sapiens) (UniProt Q9Y2H1); conditions: Compound concentration 1000.0 nM
[34] = system: Epidermal growth factor receptor (Homo sapiens), P00533 [G719C]; conditions: Compound concentration 1000.0 nM
[35] = biological target: Receptor-interacting serine/threonine-protein kinase 1 (Homo sapiens) (UniProt Q13546); conditions: Compound concentration 1000.0 nM
[36] = biological target: Receptor-interacting serine/threonine-protein kinase 2 (Homo sapiens) (UniProt O43353); conditions: Compound concentration 1000.0 nM
[37] = biological target: Mitogen-activated protein kinase 9 (Homo sapiens) (UniProt P45984); conditions: Compound concentration 1000.0 nM
[38] = biological target: Cyclin-dependent kinase 2 (Homo sapiens) (UniProt P24941); conditions: Compound concentration 1000.0 nM
[39] = biological target: GABA-A receptor; anion channel (Rattus norvegicus) (UniProt O09028+P15431+P18506+P18508+P19969+P20236+P23574+P23576+P28471+P28473+P30191+P62813+P63079+P63138+Q91ZM7+Q9ES14); conditions: Compound concentration 10.0 uM
[40] = biological target: Serine/threonine-protein kinase Nek7 (Homo sapiens) (UniProt Q8TDX7); conditions: Compound concentration 1000.0 nM
[41] = biological target: ALK tyrosine kinase receptor (Homo sapiens) (UniProt Q9UM73); conditions: Compound concentration 1000.0 nM
[42] = system: Phosphatidylinositol 4,5-bisphosphate 3-kinase catalytic subunit alpha isoform (Homo sapiens), P42336 [E545K]; conditions: Compound concentration 1000.0 nM
[43] = system: Epidermal growth factor receptor (Homo sapiens), P00533 [T790M]; conditions: Compound concentration 1000.0 nM
[44] = biological target: RAC-beta serine/threonine-protein kinase (Homo sapiens) (UniProt P31751); conditions: Compound concentration 1000.0 nM
Sequence of RAC-beta serine/threonine-protein kinase (Homo sapiens) (P31751 whole entry): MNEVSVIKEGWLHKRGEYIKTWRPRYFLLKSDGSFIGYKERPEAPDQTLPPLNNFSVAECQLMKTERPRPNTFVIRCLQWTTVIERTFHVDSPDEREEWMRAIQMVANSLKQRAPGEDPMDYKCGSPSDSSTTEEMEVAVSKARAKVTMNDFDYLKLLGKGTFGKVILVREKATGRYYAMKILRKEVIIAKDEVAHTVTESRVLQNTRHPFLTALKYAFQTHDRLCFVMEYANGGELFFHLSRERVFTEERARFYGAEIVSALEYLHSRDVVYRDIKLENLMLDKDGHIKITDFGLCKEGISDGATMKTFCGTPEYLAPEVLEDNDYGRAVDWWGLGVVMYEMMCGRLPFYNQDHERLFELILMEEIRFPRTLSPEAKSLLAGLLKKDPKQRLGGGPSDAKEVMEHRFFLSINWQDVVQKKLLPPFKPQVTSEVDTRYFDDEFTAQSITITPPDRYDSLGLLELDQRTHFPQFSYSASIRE

Sequence of LIM domain kinase 1 (Homo sapiens) (P53667 whole entry, looked up, the tested form may be a part): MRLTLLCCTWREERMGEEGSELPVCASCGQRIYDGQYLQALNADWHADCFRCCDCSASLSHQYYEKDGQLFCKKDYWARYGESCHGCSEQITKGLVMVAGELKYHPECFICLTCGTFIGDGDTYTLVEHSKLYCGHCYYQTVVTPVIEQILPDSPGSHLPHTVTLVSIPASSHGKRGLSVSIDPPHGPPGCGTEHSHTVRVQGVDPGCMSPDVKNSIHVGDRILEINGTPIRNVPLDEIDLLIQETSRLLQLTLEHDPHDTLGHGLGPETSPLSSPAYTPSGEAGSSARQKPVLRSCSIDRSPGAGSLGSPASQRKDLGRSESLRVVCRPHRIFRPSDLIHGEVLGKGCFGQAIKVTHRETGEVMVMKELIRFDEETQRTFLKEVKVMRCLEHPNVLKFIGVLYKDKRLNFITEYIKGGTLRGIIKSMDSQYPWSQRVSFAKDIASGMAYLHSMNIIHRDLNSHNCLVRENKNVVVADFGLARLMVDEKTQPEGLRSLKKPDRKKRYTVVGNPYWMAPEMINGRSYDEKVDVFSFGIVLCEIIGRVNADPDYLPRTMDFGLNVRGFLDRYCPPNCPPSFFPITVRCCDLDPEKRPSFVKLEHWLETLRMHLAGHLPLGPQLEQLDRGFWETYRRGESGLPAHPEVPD
Sequence of Ephrin type-A receptor 5 (Homo sapiens) (P54756 whole entry): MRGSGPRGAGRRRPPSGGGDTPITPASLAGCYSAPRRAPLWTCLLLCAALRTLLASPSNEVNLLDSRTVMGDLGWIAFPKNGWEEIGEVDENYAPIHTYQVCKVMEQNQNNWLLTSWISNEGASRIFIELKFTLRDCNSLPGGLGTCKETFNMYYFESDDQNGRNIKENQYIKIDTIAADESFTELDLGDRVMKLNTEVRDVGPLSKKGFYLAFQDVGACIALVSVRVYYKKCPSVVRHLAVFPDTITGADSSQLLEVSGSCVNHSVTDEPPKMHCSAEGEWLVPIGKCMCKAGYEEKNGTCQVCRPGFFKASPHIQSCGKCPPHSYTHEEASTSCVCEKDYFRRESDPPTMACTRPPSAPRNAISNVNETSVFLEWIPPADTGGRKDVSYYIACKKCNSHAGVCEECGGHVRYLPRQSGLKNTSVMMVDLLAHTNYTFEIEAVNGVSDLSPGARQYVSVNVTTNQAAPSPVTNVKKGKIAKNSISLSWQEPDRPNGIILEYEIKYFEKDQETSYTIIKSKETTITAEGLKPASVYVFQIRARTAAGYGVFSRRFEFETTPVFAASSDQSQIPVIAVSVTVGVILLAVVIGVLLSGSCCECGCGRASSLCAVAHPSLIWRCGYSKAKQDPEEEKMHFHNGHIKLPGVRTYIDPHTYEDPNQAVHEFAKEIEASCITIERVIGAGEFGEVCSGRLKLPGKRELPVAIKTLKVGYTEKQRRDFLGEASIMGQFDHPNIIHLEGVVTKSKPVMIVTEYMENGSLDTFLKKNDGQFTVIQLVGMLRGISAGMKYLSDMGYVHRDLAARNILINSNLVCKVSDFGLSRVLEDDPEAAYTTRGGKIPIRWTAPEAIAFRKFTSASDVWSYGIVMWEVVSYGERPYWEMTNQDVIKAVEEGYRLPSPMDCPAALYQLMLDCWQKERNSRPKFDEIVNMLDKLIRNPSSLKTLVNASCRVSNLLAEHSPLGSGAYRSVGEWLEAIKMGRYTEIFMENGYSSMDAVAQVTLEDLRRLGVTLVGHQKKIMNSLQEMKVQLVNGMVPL
Sequence of Serine/threonine-protein kinase 38-like (Homo sapiens) (Q9Y2H1 2-464 limits assumed): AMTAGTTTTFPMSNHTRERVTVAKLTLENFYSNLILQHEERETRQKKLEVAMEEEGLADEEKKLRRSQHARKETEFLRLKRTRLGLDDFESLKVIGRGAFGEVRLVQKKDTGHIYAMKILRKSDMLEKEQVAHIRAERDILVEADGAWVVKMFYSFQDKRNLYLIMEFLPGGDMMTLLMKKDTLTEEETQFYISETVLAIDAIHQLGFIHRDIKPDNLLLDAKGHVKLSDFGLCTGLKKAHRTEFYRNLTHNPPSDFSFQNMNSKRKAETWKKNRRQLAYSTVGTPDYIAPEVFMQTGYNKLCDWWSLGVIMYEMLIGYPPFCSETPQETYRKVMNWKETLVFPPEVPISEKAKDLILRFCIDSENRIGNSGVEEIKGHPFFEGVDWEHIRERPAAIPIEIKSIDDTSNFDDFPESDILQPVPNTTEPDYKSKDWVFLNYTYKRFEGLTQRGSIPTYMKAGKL
Sequence of Mitogen-activated protein kinase kinase kinase 7 (Homo sapiens) (O43318 whole entry): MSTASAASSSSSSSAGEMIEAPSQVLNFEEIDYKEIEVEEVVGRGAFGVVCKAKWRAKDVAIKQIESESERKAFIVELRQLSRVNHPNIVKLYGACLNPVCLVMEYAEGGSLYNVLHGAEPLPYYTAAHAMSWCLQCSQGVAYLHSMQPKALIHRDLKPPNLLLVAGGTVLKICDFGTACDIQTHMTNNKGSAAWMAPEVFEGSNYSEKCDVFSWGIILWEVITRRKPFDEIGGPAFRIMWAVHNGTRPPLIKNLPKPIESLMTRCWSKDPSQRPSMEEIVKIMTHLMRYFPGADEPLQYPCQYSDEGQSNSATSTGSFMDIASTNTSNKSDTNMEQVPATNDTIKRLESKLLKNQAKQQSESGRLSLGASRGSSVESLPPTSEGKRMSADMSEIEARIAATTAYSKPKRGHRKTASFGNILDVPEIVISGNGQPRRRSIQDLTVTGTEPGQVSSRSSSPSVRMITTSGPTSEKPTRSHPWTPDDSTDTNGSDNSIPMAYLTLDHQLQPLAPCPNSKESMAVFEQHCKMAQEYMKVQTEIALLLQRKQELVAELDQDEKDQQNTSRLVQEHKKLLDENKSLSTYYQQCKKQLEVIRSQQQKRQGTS
Sequence of Fibroblast growth factor receptor 2 (Homo sapiens) (P21802 22-821 limits assumed): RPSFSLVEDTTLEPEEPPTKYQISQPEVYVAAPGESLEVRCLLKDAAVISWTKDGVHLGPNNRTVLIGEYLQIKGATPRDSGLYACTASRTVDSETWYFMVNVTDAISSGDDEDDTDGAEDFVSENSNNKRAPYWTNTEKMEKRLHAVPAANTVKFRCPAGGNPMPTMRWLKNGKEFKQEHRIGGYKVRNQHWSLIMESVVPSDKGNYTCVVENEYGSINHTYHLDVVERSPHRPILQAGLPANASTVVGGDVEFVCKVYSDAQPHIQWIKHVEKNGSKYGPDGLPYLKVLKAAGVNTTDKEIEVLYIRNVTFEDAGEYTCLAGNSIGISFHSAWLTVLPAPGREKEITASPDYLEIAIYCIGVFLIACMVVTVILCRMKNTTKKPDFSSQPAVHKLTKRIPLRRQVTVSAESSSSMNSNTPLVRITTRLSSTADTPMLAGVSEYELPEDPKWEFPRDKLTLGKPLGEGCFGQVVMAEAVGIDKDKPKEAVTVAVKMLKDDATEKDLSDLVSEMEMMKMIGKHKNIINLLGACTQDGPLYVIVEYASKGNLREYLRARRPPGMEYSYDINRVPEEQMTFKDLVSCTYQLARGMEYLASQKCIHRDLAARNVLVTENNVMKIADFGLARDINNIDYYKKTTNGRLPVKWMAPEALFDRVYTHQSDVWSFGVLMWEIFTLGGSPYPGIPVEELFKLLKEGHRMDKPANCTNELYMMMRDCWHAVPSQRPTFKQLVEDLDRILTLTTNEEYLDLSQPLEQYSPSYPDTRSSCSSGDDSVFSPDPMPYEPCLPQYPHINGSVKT
Sequence of Fibroblast growth factor receptor 1 (Homo sapiens) (P11362 22-822 limits assumed): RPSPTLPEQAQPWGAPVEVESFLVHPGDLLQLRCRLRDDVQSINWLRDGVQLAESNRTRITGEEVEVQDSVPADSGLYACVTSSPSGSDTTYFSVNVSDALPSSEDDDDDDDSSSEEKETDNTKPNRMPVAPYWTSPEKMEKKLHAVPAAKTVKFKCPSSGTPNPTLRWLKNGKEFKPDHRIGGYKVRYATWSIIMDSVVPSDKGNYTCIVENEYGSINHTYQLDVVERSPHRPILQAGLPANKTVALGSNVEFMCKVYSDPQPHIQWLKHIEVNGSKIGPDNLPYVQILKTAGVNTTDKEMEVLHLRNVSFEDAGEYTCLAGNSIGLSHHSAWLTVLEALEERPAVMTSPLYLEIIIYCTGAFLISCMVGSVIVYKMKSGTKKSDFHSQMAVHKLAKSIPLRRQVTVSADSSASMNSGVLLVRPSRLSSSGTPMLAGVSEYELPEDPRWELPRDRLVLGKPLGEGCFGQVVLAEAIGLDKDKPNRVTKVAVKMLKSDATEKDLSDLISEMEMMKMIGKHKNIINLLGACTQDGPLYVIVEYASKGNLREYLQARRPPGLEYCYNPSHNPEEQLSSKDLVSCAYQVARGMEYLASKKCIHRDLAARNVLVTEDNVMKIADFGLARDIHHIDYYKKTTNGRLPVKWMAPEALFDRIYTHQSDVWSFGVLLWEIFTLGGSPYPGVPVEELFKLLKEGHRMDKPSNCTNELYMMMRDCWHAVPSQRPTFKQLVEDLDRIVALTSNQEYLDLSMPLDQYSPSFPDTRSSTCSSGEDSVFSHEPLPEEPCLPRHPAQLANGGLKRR

CCS(=O)(=O)c1cc2cc(C[C@@](O)(CC(C)(C)c3ccc(F)cc3C(N)=O)C(F)(F)F)[nH]c2cn1
residual activity [1]: 95%
residual activity [2]: 100%
residual activity [3]: 100%
residual activity [4]: 85%
residual activity [5]: 96%
residual activity [6]: 69%
residual activity [7]: 93%
residual activity [8]: 100%
residual activity [9]: 97%
residual activity [10]: 91%
residual activity [11]: 86%
residual activity [12]: 90%
residual activity [13]: 73%
residual activity [14]: 80%
residual activity [15]: 76%
residual activity [16]: 66%
residual activity [17]: 99%
residual activity [18]: 81%
residual activity [19]: 90%
inhibition [20]: -8.82%
residual activity [21]: 76%
inhibition [22]: 1.64%
residual activity [23]: 57%
residual activity [24]: 100%
residual activity [25]: 100%
residual activity [26]: 92%
residual activity [27]: 100%
residual activity [28]: 91%
residual activity [29]: 78%
residual activity [30]: 100%
residual activity [31]: 95%
residual activity [32]: 100%
residual activity [33]: 38%
residual activity [34]: 100%
residual activity [35]: 92%
residual activity [36]: 100%
residual activity [37]: 84%
residual activity [38]: 96%
inhibition [39]: 19.5%
residual activity [40]: 95%
residual activity [41]: 100%
residual activity [42]: 79%
residual activity [43]: 88%
residual activity [44]: 93%

CCS(=O)(=O)c1cc2cc(C[C@](O)(CC(C)(C)c3ccc(F)cc3C(N)=O)C(F)(F)F)[nH]c2cn1
residual activity [1]: 100%
residual activity [2]: 100%
residual activity [3]: 100%
residual activity [4]: 100%
residual activity [5]: 100%
residual activity [6]: 100%
residual activity [7]: 100%
residual activity [8]: 100%
residual activity [9]: 87%
residual activity [10]: 100%
residual activity [11]: 94%
residual activity [12]: 95%
residual activity [13]: 88%
residual activity [14]: 100%
residual activity [15]: 85%
residual activity [16]: 100%
residual activity [17]: 95%
residual activity [18]: 85%
residual activity [19]: 100%
inhibition [20]: -0.48%
residual activity [21]: 74%
inhibition [22]: 3.39%
residual activity [23]: 90%
residual activity [24]: 100%
residual activity [25]: 100%
residual activity [26]: 100%
residual activity [27]: 100%
residual activity [28]: 100%
residual activity [29]: 91%
residual activity [30]: 95%
residual activity [31]: 94%
residual activity [32]: 100%
residual activity [33]: 45%
residual activity [34]: 100%
residual activity [35]: 100%
residual activity [36]: 67%
residual activity [37]: 100%
residual activity [38]: 94%
inhibition [39]: 11%
residual activity [40]: 100%
residual activity [41]: 100%
residual activity [42]: 80%
residual activity [43]: 78%
residual activity [44]: 94%
